This is an account of results in patent US8680108B2, “Substituted fused aryl and heteroaryl derivatives as PI3K inhibitors” (Incyte Corporation, priority 2009, dated 2014).

Counter-ions that a name gives are not always drawn. A value given as a limit tells only on which side of the number the result lay.

In the first assay the target is T1, PI3Kδ (p110δ/p85α) (Homo sapiens, UniProt O00329).
T1 construct: purchased Millipore (Bedford, Mass.)
T1 sequence (O00329 whole entry): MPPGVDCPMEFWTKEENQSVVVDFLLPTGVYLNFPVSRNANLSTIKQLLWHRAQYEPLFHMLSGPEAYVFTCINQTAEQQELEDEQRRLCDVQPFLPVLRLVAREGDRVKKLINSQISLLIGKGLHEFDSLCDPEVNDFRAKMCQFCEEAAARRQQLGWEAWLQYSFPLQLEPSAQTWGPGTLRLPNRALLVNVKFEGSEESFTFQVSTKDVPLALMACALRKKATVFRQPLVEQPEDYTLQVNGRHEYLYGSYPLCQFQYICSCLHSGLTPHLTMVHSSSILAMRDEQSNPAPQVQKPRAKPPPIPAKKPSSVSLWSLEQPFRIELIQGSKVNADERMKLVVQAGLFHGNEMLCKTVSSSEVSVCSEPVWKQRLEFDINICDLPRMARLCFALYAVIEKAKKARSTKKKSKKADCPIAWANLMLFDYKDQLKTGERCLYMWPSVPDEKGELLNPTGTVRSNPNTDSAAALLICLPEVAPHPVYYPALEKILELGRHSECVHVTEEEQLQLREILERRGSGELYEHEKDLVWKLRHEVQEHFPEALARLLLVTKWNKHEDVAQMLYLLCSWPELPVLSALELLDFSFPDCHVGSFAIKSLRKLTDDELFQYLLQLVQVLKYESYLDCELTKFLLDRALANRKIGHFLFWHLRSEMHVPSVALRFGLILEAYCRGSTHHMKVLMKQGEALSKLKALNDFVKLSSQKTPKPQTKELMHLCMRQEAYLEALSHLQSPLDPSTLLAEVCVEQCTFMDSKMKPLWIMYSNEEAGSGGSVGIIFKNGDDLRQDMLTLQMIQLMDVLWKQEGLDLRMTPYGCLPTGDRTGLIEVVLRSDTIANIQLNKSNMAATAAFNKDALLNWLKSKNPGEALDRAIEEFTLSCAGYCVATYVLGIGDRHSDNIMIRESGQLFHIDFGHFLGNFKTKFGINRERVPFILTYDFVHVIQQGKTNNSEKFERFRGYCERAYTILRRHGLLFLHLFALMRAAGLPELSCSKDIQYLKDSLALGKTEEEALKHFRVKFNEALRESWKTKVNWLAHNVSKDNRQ
T1 sequence (P27986 whole entry partner): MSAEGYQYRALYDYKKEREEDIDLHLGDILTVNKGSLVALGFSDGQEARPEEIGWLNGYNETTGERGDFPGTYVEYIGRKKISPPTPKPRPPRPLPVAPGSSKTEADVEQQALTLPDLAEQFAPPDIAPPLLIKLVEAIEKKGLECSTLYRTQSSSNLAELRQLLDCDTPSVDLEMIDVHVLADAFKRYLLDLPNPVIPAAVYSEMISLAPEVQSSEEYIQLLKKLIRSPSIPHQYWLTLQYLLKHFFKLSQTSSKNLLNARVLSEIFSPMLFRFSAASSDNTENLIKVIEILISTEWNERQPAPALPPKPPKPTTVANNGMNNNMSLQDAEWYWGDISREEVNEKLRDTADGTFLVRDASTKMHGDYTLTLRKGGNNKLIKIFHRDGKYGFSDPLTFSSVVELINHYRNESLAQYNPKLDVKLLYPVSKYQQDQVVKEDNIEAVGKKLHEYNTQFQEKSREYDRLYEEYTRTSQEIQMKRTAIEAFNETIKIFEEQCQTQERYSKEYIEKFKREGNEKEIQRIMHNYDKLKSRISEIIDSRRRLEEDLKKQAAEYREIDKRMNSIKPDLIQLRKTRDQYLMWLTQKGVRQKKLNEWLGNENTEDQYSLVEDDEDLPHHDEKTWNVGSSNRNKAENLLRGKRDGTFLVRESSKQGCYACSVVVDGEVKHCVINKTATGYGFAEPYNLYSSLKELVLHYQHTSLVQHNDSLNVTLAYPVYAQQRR
As to the kind of experiment: PI3Kδ scintillation proximity assay. It is filed as biochemical.
Conditions: not given
An excerpt: Materials: [γ-^33P]ATP (10 mCi/mL) was purchased from Perkin-Elmer (Waltham, Mass.). Lipid kinase substrate, D-myo-Phosphatidylinositol 4,5-bisphosphate (PtdIns(4,5)P2)D (+)-sn-1,2-di-O-octanoylglyceryl, 3-O-phospho linked (PIP2), CAS 204858-53-7, was purchased from Echelon Biosciences (Salt Lake City, Utah). PI3Kδ (p110δ/p85α) was purchased from Millipore (Bedford, Mass.). ATP, MgCl2, DTT, EDTA, MOPS and CHAPS were purchased from Sigma-Aldrich (St. Louis, Mo.). Wheat Germ Agglutinin (WGA) YSi SPA Scintillation Beads was purchased from GE healthcare life sciences (Piscataway, N.J.).
Assay: The kinase reaction was conducted in polystyrene 384-well matrix white plate from Thermo Fisher Scientific in a final volume of 25 μL. Inhibitors were first diluted serially in DMSO and added to the plate wells before the addition of other reaction components. The final concentration of DMSO in the assay was 0.5%. The PI3K assays were carried out at room temperature in 20 mM MOPS, pH 6.7, 10 mM MgCl2, 5 mM DTT and CHAPS 0.03%. Reactions were initiated by the addition of ATP, the final reaction mixture consisted of 20 μM PIP2, 20 μM ATP, 0.2 μCi [γ-^33P] ATP, 4 nM PI3Kδ. Reactions were incubated for 210 minutes and terminated by the addition of 40 μL SPA beads suspended in quench buffer: 150 mM potassium phosphate pH 8.0, 20% glycerol. 25 mM EDTA, 400 μM ATP. The final concentration of SPA beads is 1.0 mg/mL. After the plate sealing, plates were shaken overnight at room temperature and centrifuged at 1800 rpm for 10 minutes, the radioactivity of the product was determined by scintillation counting on Topcount (Perkin-Elmer). IC50 determination was performed by fitting the curve of percent control activity versus the log of the inhibitor concentration using the GraphPad Prism® 3.0 software.
(Scintillation proximity formats need no separation of bound from free tracer.)
Regarding `CC(Nc1ncnc2[nH]cnc12)c1ccc2cccnc2c1-c1cccc(F)c1` (centres unmarked) [Example 8, N-{1-[8-(3-fluorophenyl)quinolin-7-yl]ethyl}-9H-purin-6-amine bis-trifluoroacetate], the IC50 lay in the range of 250 to 500 nM.
In turn, `CC(Nc1ncnc2[nH]cnc12)c1cc(Cl)c2cccnc2c1N1CCN(C(=O)N(C)C)CC1` (centres unmarked) [Example 88, 4-{5-Chloro-7-[1-(9H-purin-6-ylamino)ethyl]quinolin-8-yl}-N,N-dimethylpiperazine-1-carboxamide bis(trifluoroacetate)] showed an IC50 of under 50 nM.
As to `CC(Nc1ncnc2[nH]cnc12)c1cc(Cl)c2cccnc2c1N1CCC(O)(c2ccccc2)CC1` (centres unmarked) [Example 49, 1-{5-Chloro-7-[1-(9H-purin-6-ylamino)ethyl]quinolin-8-yl}-4-phenylpiperidin-4-ol], the half-maximal inhibitory concentration (IC50) was over 1000 nM.
The compound `Cc1cc(C(C)Nc2ncnc3[nH]cnc23)c(-c2cccc(F)c2)c2ncccc12` (centres unmarked) [Example 50, N-{1-[8-(3-Fluorophenyl)-5-methylquinolin-7-yl]ethyl}-9H-purin-6-amine] gave a concentration for half-maximal inhibition (IC50) of 100 to 250 nM.
Same read-out and setting: as for `CC(Nc1ncnc2[nH]cnc12)c1cc(Cl)c2cccnc2c1N1CCN(Cc2ccncc2)CC1` (centres unmarked) [Example 74, N-(1-{5-Chloro-8-[4-(pyridin-4-ylmethyl)piperazin-1-yl]quinolin-7-yl}ethyl)-9H-purin-6-amine tris(trifluoroacetate)], the figure is under 50 nM; as for `CC(Nc1ncnc2[nH]cnc12)c1cc(Cl)c2cccnc2c1N1CCN(C(=O)c2ccc(F)cc2)CC1` (centres unmarked) [Example 91, N-(1-{5-Chloro-8-[4-(4-fluorobenzoyl)piperazin-1-yl]quinolin-7-yl}ethyl)-9H-purin-6-amine bis(trifluoroacetate)], 100 to 250 nM; as for `CC(Nc1ncnc2[nH]cnc12)c1cc(Cl)c2cn[nH]c2c1-c1cc(F)cc(F)c1` (centres unmarked) [Example 106, N-{1-[4-Chloro-7-(3,5-difluorophenyl)-1H-indazol-6-yl]ethyl)-9H-purin-6-amine], under 50 nM.
The same measure, in the same setting: as for `CC(Nc1ncnc2[nH]cnc12)c1cc(F)c2ccnnc2c1-c1cc(F)cc(F)c1` (single isomer, unassigned) [Example 30, N-{1-[8-(3,5-difluorophenyl)-5-fluorocinnolin-7-yl]ethyl}-9H-purin-6-amine trifluoroacetate], the figure is over 1000 nM; as for `CC(=O)NC1CCN(c2c(C(C)Nc3ncnc4[nH]cnc34)cc(Cl)c3cccnc23)CC1` (centres unmarked) [Example 82, N-(1-{5-Chloro-7-[1-(9H-purin-6-ylamino)ethyl]quinolin-8-yl}piperidin-4-yl)acetamide bis(trifluoroacetate)], under 50 nM.
Same read-out and setting: as for `CC(Nc1ncnc2[nH]cnc12)c1cc(Cl)c2cccnc2c1N1CCC(C#N)C1` (mixture of isomers) [Example 60, 1-{5-Chloro-7-[1-(9H-purin-6-ylamino)ethyl]quinolin-8-yl}pyrrolidine-3-carbonitrile bis(trifluoroacetate)], the figure is 100 to 250 nM; as for `CC(Nc1ncnc2[nH]cnc12)c1cc(Cl)c2ccnnc2c1-c1cc(F)cc(F)c1` (single isomer, unassigned) [Example 24, N-{1-[5-Chloro-8-(3,5-difluorophenyl)cinnolin-7-yl]ethyl}-9H-purin-6-amine], over 1000 nM.
On to `Cc1nc(C(C)Nc2ncnc3[nH]cnc23)c(-c2cccc(F)c2)c2ccccc12` (centres unmarked) [Example 44, N-{1-[4-(3-Fluorophenyl)-1-methylisoquinolin-3-yl]ethyl}-9H-purin-6-amine], for which the IC50 is 100 to 250 nM.
Same read-out and setting: then `CC(Nc1ncnc2[nH]cnc12)c1cc(Cl)c2cnn(C)c2c1-c1cc(F)cc(F)c1` (centres unmarked) [Example 107], with under 50 nM; and `CC(Nc1ncnc2[nH]cnc12)c1cc(Cl)c2cccnc2c1N1CCN(C2CCC2)CC1` (centres unmarked) [Example 69, N-{1-[5-Chloro-8-(4-cyclobutylpiperazin-1-yl)quinolin-7-yl]ethyl}-9H-purin-6-amine tris(trifluoroacetate)], with under 50 nM; and `CNC(=O)c1cc(F)cc(-c2c(C(C)Nc3ncnc4[nH]cnc34)cc(Cl)c3ccnnc23)c1` (centres unmarked) [Example 40, 3-{5-Chloro-7-[1-(9H-purin-6-ylamino)ethyl]cinnolin-8-yl}-5-fluoro-N-methylbenzamide], with over 1000 nM.
Regarding `CC(Nc1ncnc2[nH]cnc12)c1cc(Cl)c2ccnnc2c1-c1cncc(F)c1` (single isomer, unassigned) [Example 35, N-{1-[5-chloro-8-(5-fluoropyridin-3-yl)cinnolin-7-yl]ethyl}-9H-purin-6-amine trifluoroacetate], the concentration for half-maximal inhibition (IC50) was over 1000 nM.
For `CC(Nc1ncnc2[nH]cnc12)c1cc(Cl)c2cccnc2c1N1CC[C@H](F)C1` (mixture of isomers) [Example 57, N-(1-{5-Chloro-8-[(3S)-3-fluoropyrrolidin-1-yl]quinolin-7-yl}ethyl)-9H-purin-6-amine bis(trifluoroacetate)], the half-maximal inhibitory concentration (IC50) was in the range of 250 to 500 nM.
The same measure, in the same setting: then `COCC(=O)N1CCN(c2c(C(C)Nc3ncnc4[nH]cnc34)cc(Cl)c3cccnc23)CC1` (centres unmarked) [Example 87, N-(1-{5-Chloro-8-[4-(methoxyacetyl)piperazin-1-yl]quinolin-7-yl}ethyl)-9H-purin-6-amine bis(trifluoroacetate)], with under 50 nM; and `CC(Nc1ncnc2[nH]cnc12)c1cc(Cl)c2cccnc2c1N1CCC(CCO)CC1` (centres unmarked) [Example 73, 2-(1-{5-Chloro-7-[1-(9H-purin-6-ylamino)ethyl]quinolin-8-yl}piperidin-4-yl)ethanol bis(trifluoroacetate)], with 100 to 250 nM.
As for `CC(Nc1ncnc2[nH]cnc12)c1cc(F)c2ccnnc2c1-c1cccc(F)c1` (single isomer, unassigned) [Example 20, N-{1-[5-Fluoro-8-(3-fluorophenyl)cinnolin-7-yl]ethyl}-9H-purin-6-amine], the IC50 is under 50 nM.
Same read-out and setting: then `CC(Nc1ncnc2[nH]cnc12)c1cc(F)c2ccnnc2c1-c1cc(F)cc(F)c1` (single isomer, unassigned) [Example 29, N-{1-[8-(3,5-difluorophenyl)-5-fluorocinnolin-7-yl]ethyl}-9H-purin-6-amine trifluoroacetate], with 100 to 250 nM; and `CC(Nc1ncnc2[nH]cnc12)c1cc(Cl)c2cccnc2c1N1CCN(C(=O)c2ccccc2F)CC1` (centres unmarked) [Example 93, N-(1-{5-Chloro-8-[4-(2-fluorobenzoyl)piperazin-1-yl]quinolin-7-yl}ethyl)-9H-purin-6-amine bis(trifluoroacetate)], with 250 to 500 nM; and `CC(Nc1ncnc2[nH]cnc12)c1cc(F)c2cccnc2c1N1CCN(C2CCC2)CC1` (centres unmarked) [Example 55, N-{1-[8-(4-Cyclobutylpiperazin-1yl)-5-fluoroquinolin-7-yl]ethyl}-9H-purin-6-amine], with under 50 nM.
The same measure, in the same setting: then `COC[C@H]1CCCN1c1c(C(C)Nc2ncnc3[nH]cnc23)cc(Cl)c2cccnc12` (mixture of isomers) [Example 14, N-(1-{5-chloro-8-[(2R)-2-(methoxymethyl)pyrrolidin-1-yl]quinolin-7-yl}ethyl)-9H-purin-6-amine bis-trifluoroacetate], with 100 to 250 nM.
Same read-out and setting: then `CC(Nc1ncnc2[nH]cnc12)c1cc(Cl)c2cccnc2c1N1CCC(N2CCCCC2)CC1` (centres unmarked) [Example 70, N-{1-[8-(1,4′-Bipiperidin-1′-yl)-5-chloroquinolin-7-yl]ethyl}-9H-purin-6-amine tris(trifluoroacetate)], with 50 to 100 nM; and `CC(Nc1ncnc2[nH]cnc12)c1cc(Cl)c2cccnc2c1N1CCN(C(=O)c2ccccc2)CC1` (centres unmarked) [Example 89, N-(1-[8-(4-Benzoylpiperazin-1-yl)-5-chloroquinolin-7-yl]ethyl}-9H-purin-6-amine bis(trifluoroacetate)], with 50 to 100 nM; and `CC(Nc1ncnc2[nH]cnc12)c1cc(Cl)c2ccnnc2c1-c1ccnc(F)c1` (centres unmarked) [Example 42, N-{1-[5-Chloro-8-(2-fluoropyridin-4-yl)cinnolin-7-yl]ethyl}-9H-purin-6-amine], with 500 to 1000 nM.
Compound `CC(Nc1ncnc2[nH]cnc12)c1cc(Cl)c2cccnc2c1N1CCN(CCO)CC1` (centres unmarked) [Example 58, 2-(4-{5-Chloro-7-[1-(9H-purin-6-ylamino)ethyl]quinolin-8-yf}piperazin-1-yl)ethanol tris(trifluoroacetate)] registered an IC50 of under 50 nM.

Still in this assay, the particulars now being: separated isomer, 1st peak.
For `CC(Nc1nc(N)nc2[nH]cnc12)c1ccc2ccccc2c1-c1cccc(F)c1` (centres unmarked) [Example 4, N(6)-{1-[1-(3-fluorophenyl)-2-napthyl]ethyl}-9H-purine-2,6-diamine], the IC50 lay within 500 to 1000 nM.
As to `CC(Nc1ncnc2[nH]cnc12)c1cc(Cl)c2cccnc2c1N1CC[C@@H](O)C1` (stereo partly drawn) [Example 12, (3R)-1-{5-chloro-7-[1-(9H-purin-6-ylamino)ethyl]quinolin-8-yl}pyrrolidin-3-ol bis-trifluoroacetate], the half-inhibitory concentration (IC50) was over 1000 nM.

Still in this assay, the particulars now being: separated isomer, 2nd peak.
`CC(Nc1nc(N)nc2[nH]cnc12)c1ccc2ccccc2c1-c1cccc(F)c1` (centres unmarked) [Example 4, N(6)-{1-[1-(3-fluorophenyl)-2-napthyl]ethyl}-9H-purine-2,6-diamine] yielded a concentration for half-maximal inhibition (IC50) of 500 to 1000 nM.
Same read-out and setting: then `CC(Nc1ncnc2[nH]cnc12)c1cc(Cl)c2cccnc2c1N1CC[C@@H](O)C1` (stereo partly drawn) [Example 12, (3R)-1-{5-chloro-7-[1-(9H-purin-6-ylamino)ethyl]quinolin-8-yl}pyrrolidin-3-ol bis-trifluoroacetate], with under 50 nM.

Usually IC50 stands for the concentration that inhibits the measured activity by half. A high value points to a need for much substance.
